Measured values reported in patent publication US11332455B2, “α,β-unsaturated amide compound” (KYOWA KIRIN CO., LTD., priority 2015, dated 2022).

Each compound was assayed on NCI-H226 cells, a human mesothelioma cell line (assay: Cell growth inhibitory effect, cell counting kit 8, 6 days). Details: 144 h, 6 days incubation, group 100 nmol/L to 1 μmol/L (upper bound given in μmol/L).
Format: cell-based
From the text: Cell growth inhibitory effect on human mesothelioma, human liver cancer, human ovarian cancer, and […]
NCI-H226 cells, a human mesothelioma cell line (ATCC, CRL-5826), NCI-H322 cells, a human lung cancer cell line (the European Collection of Authenticated Cell Cultures, 95111734), OVTOKO cells, a human ovarian cancer cell line (JCRB cell bank, JCRB1048) and HuH28, a human liver cancer cell line (JCRB cell bank, JCRB0426) were each subcultured by keeping the cell density under 80% in a RPMI1640 culture medium with 10% fetal bovine serum (FBS). NCI-H226 cells, NCI-H322 cells and SSP-25 cells were each suspended in the RPM11640 culture medium mentioned above, and plated to a 96-well flat-bottom plate at 500 cells/well in each well, and incubated at 37° C. in an incubator with 5% CO2 for one day. After the incubation, the evaluation of cell growth inhibitory activity was started. OVTOKO cells were suspended in the RPMI1640 culture medium mentioned above, and plated to a 96-well flat-bottom plate at 250 cells/well in each well, and incubated it at 37° C. in an incubator with 5% CO2 for one day. After the incubation, the evaluation of the cell growth inhibitory activity was started. The next day, a test compound was serially diluted to 5 times of its final concentration in the RPM11640 culture medium mentioned above, and the diluted solution was added to each well. In this case, the final concentration of DMSO in each well was adjusted to 0.1%. After the test compound was added, cells were incubated at 37° C. in an incubator with 5% CO2 for 6 days. At the addition of the test compound and 6 days after the addition, the cell counting measurement was performed using a cell counting kit 8 (made by DOJINDO) according to a protocol equivalent to DOJINDO's recommendation. A reagent contained in the kit was added to each plate and color reaction was performed for 2 or 3 hours at 37° C. in an incubator with 5% CO2. After the reaction, an absorbance at wavelength of 450 nm was measured using a microplate reader. A growth inhibition rate was calculated according to the following formula, from which the concentration of a test compound at which cell growth was inhibited by 50% (GI50 value) was determined.

SMILES	GI50 [nM]
C=CC(=O)NC1COc2c(cc(Br)cc2Oc2ccc(C(F)(F)F)nc2)C1 (racemic) [Compound 153, N-(6-Bromo-8-[{6-(trifluoromethyl)pyridin-3-yl}oxy]chroman-3-yl) acrylamide]	100 to 1000
C=CC(=O)N[C@H]1CC[C@H](Oc2ccc(Cl)cc2)c2nc(OC)ccc21 (relative stereo) [Compound 81, trans-N-{8-(4-Chlorophenoxy)-2-methoxy-5,6,7,8-tetrahydroquinolin-5-yl}acrylamide]	100 to 1000
C=CC(=O)N[C@H]1CC[C@@H](Oc2cnc(Cl)c(Cl)c2)c2nc(Cl)ccc21 (relative stereo) [Compound 181, cis-N-[2-Chloro-8-{(5,6-dichloropyridin-3-yl)oxy}-5,6,7,8-tetrahydroquinolin-5-yl]acrylamide]	100 to 1000
C=CC(=O)N[C@H]1CC[C@@H](Oc2ccc(C(F)(F)F)cc2)c2nc(CC)ccc21 (relative stereo) [Compound 186, cis-N-[2-ethyl-8-{4-(trifluoromethyl)phenoxy}-5,6,7,8-tetrahydroquinolin-5-yl]acrylamide]	100 to 1000
C=CC(=O)NC1CCOc2cc(OCc3ccccc3)ccc21 (stereo not shown) [Compound 14, N-{7-(Benzyloxy)chroman-4-yl}acrylamide]	100 to 1000
C=CC(=O)NC1CCOc2cc(OCC3CCCCC3)ccc21 (stereo not shown) [Compound 16, N-{7-(Cyclohexylmethoxy)chroman-4-yl}acrylamide]	100 to 1000
C=CC(=O)NC1CCOc2cc(Oc3ccc(Cl)cc3)c(C)cc21 (stereo not shown) [Compound 23, N-{7-(4-Chlorophenoxy)-6-methylchroman-4-yl}acrylamide]	100 to 1000
C=CC(=O)NC1CCOc2ccc(Oc3ccc(Cl)cc3)cc21 (stereo not shown) [Compound 24, N-{6-(4-Chlorophenoxy)chroman-4-yl}acrylamide]	100 to 1000
C=CC(=O)NCC1CCOc2cc(Oc3ccc(Cl)cc3)ccc21 (stereo not shown) [Compound 26, N-[{7-(4-Chlorophenoxy)chroman-4-yl}methyl]acrylamide]	100 to 1000
C=CC(=O)NC1COc2c(cccc2Oc2ccc(Cl)nc2)C1 (stereo not shown) [Compound 49, N-[8-{(6-Chloropyridin-3-yl)oxy}chroman-3-yl]acrylamide]	100 to 1000
C=CC(=O)Nc1cnc(C)c(Oc2ccc(Cl)cc2)c1 [Compound 92, N-{5-(4-Chlorophenoxy)-6-methylpyridin-3-yl}acrylamide]	100 to 1000
C=CC(=O)Nc1cc(Oc2ccc(Cl)cc2)cnc1C [Compound 93, N-{5-(4-Chlorophenoxy)-2-methylpyridin-3-yl}acrylamide]	100 to 1000
C=CC(=O)Nc1cncc(Oc2ccc(Cl)cc2)c1 [Compound 94, N-{5-(4-chlorophenoxy)pyridin-3-yl}acrylamide]	100 to 1000
C=CC(=O)Nc1cncc(Oc2ccc(OCC)cc2)c1 [Compound 102, N-{5-(4-Ethoxyphenoxy)pyridin-3-yl}acrylamide]	100 to 1000
C=CC(=O)Nc1cncc(Oc2ccc(OC(C)C)cc2)c1 [Compound 103, N-{5-(4-Isopropoxyphenoxy)pyridin-3-yl}acrylamide]	100 to 1000
C=CC(=O)Nc1ccc(OC2CCC(F)(F)CC2)c2ncccc12 [Compound 120, N-[8-{(4,4-Difluorocyclohexyl)oxy}quinolin-5-yl]acrylamide]	100 to 1000
C=CC(=O)NCc1ccc(Oc2ccc(C3CC3)cc2)c2ncccc12 [Compound 136, N-[{8-(4-Cyclopropylphenoxy)quinolin-5-yl}methyl]acrylamide]	100 to 1000
C=CC(=O)NCc1cc(Oc2ccc(Cl)cc2)nc2ccccc12 [Compound 144, N-[{2-(4-Chlorophenoxy)quinolin-4-yl}methyl]acrylamide]	100 to 1000
C=CC(=O)NCc1cc(Oc2ccc(C(F)(F)F)cc2)nc2ccccc12 [Compound 146, N-([2-{4-(Trifluoromethyl)phenoxy}quinolin-4-yl]methyl)acrylamide]	100 to 1000
C=CC(=O)NC1COc2c(cccc2Oc2ccc(C(F)(F)F)nn2)C1 (stereo not shown) [Compound 156, N-(8-[{6-(trifluoromethyl)pyridazin-3-yl}oxy]chroman-3-yl)acrylamide]	100 to 1000

Other lines, results leading:

GI50 [nM]	SMILES
100 to 1000	C=CC(=O)N[C@H]1CC[C@@H](Oc2ccccc2)c2ncccc21 (relative stereo) [Compound 67, cis-N-(8-Phenoxy-5,6,7,8-tetrahydroquinolin-5-yl)acrylamide]
100 to 1000	Cc1c(Oc2ccc(C(F)(F)F)cc2)ccc2c1OCCC2NC(=O)/C=C/C(F)(F)F (stereo not shown) [Compound 29, (E)-4,4,4-Trifluoro-N-[8-methyl-7-{4-(trifluoromethyl)phenoxy}chroman-4-yl]-2-butenamide]
100 to 1000	C=CC(=O)Nc1cncc(Oc2cccc(OCC)c2)c1 [Compound 101, N-{5-(3-Ethoxyphenoxy)pyridin-3-yl}acrylamide]
100 to 1000	C=CC(=O)Nc1cncc(Oc2ccc(Cl)c(Cl)c2)c1 [Compound 105, N-{5-(3,4-Dichlorophenoxy)pyridin-3-yl}acrylamide]
100 to 1000	C=CC(=O)Nc1ccc(Oc2ccc(Cl)cc2)c2ncccc12 [Compound 116, N-{8-(4-Chlorophenoxy)quinolin-5-yl}acrylamide]
100 to 1000	C=CC(=O)Nc1ccc(OCc2ccccc2)c2ncccc12 [Compound 123, N-{8-(Benzyloxy)quinolin-5-yl}acrylamide]
100 to 1000	C=CC(=O)NCc1ccc(Oc2ccc(Cl)nc2)c2ncccc12 [Compound 142, N-([8-{(6-Chloropyridin-3-yl)oxy}quinolin-5-yl]methyl)acrylamide]
100 to 1000	O=C(/C=C/C(F)(F)F)NCc1cc(Oc2ccc(C(F)(F)F)cc2)nc2ccccc12 [Compound 147, (E)-4,4,4-Trifluoro-N-([2-{4-(trifluoromethyl)phenoxy}quinolin-4-yl]methyl)-2-butenamide]
100 to 1000	C=CC(=O)NC1CCOc2c1ccc(OCc1ccccc1)c2F (stereo not shown) [Compound 166, N-{7-(Benzyloxy)-8-fluorochroman-4-yl}acrylamide]

Same assay, conditions: 144 h, 6 days incubation, group less than 100 nmol/L

SMILES	GI50 [nM]
C=CC(=O)N[C@H]1C[C@H](C)Oc2cc(Oc3ccc(C(F)(F)F)cc3)ccc21 (relative stereo) [Compound 20, trans-N-[2-Methyl-7-{4-(trifluoromethyl)phenoxy}chroman-4-yl]acrylamide]	< 100
C=CC(=O)NC1CCOc2cc(Oc3ccccc3)ccc21 (stereo not shown) [Compound 1, N-(7-phenoxychroman-4-yl)acrylamide]	< 100
C=CC(=O)NC1CCOc2cc(Oc3ccc(Cl)cc3)ccc21 (stereo not shown) [Compound 3, N-{7-(4-Chlorophenoxy)chroman-4-yl}acrylamide]	< 100
C=CC(=O)NC1COc2c(Oc3ccc(Cl)cc3)cccc2C1=O (stereo not shown) [Compound 39, N-{8-(4-Chlorophenoxy)-4-oxochroman-3-yl}acrylamide]	< 100
C=CC(=O)NC1COc2c(cccc2Oc2cccc(C(F)(F)F)c2)C1 (stereo not shown) [Compound 43, N-[8-{3-(Trifluoromethyl)phenoxy}chroman-3-yl]acrylamide]	< 100
C=CC(=O)NC1COc2c(cccc2Oc2ccc(C(F)(F)F)cn2)C1 (stereo not shown) [Compound 50, N-(8-[{5-(Trifluoromethyl)pyridin-2-yl}oxy]chroman-3-yl)acrylamide]	< 100
C=CC(=O)NC1COc2c(cccc2Oc2cnc(Cl)c(C)c2)C1 (stereo not shown) [Compound 56, N-[8-{(6-Chloro-5-methylpyridin-3-yl)oxy}chroman-3-yl]acrylamide]	< 100

The next lines start with the values.

GI50 [nM]	SMILES
< 100	C=CC(=O)N[C@H]1C[C@@H](C)Oc2cc(Oc3ccc(C(F)(F)F)cc3)ccc21 (relative stereo) [Compound 19, cis-N-[2-Methyl-7-{4-(trifluoromethyl)phenoxy}chroman-4-yl]acrylamide]
< 100	C=CC(=O)NC1CCOc2cc(Oc3ccc(C(F)(F)F)c(Cl)n3)ccc21 (stereo not shown) [Compound 11, N-(7-[{6-Chloro-5-(trifluoromethyl)pyridin-2-yl}oxy]chroman-4-yl)acrylamide]
< 100	C=CC(=O)NC1CCOc2c1ccc(Oc1ccc(Cl)cc1)c2F (stereo not shown) [Compound 30, N-{7-(4-Chlorophenoxy)-8-fluorochroman-4-yl}acrylamide]
< 100	C=CC(=O)NC1COc2cccc(Oc3ccc(Cl)cc3)c2C1 (stereo not shown) [Compound 34, N-{5-(4-Chlorophenoxy)chroman-3-yl}acrylamide]
< 100	C=CC(=O)NC1COc2c(cccc2Oc2ccc(C(F)(F)F)cc2)C1 (stereo not shown) [Compound 44, N-[8-{4-(Trifluoromethyl)phenoxy}chroman-3-yl]acrylamide]
< 100	C=CC(=O)Nc1cncc(Oc2ccc(OC(F)(F)F)cc2)c1 [Compound 100, N-[5-{4-(Trifluoromethoxy)phenoxy}pyridin-3-yl]acrylamide]
< 100	C=CC(=O)NCc1ccc(Oc2cccc(Cl)c2)c2ncccc12 [Compound 133, N-[{8-(3-chlorophenoxy)quinolin-5-yl}methyl]acrylamide]
